In patent publication US20210163593A1, “TREATMENT OF MONOGENIC DISEASES WITH AN ANTI-CD45RC ANTIBODY” (INSERM (INSTITUT NATIONAL DE LA SANTÉ ET DE LA RECHERCHE …, priority 2017, published 2021):

What was measured:
Format in all cases: in vivo, rat
[1] = Weight / animal growth of Dmd^mdx rats during treatment; conditions: ip from week 2 up to week 12 of age
Experimental: FIG. 6 is a set of two graphs showing the weight of wild-type or Dmd^mdx rats during treatment using prednisolone or anti-CD45RC monoclonal antibody. Control littermate wild-type (WT) or Dmd^mdx (KO) rats received intraperitoneal injections of prednisolone or anti-CD45RC monoclonal antibody (OX22) from week 2 up to week 12 of age and weight was recorded at the indicated time points.
(§1) Wild-type (WT) or Dmd^mdx (KO) rats received intraperitoneal injections of a mouse anti-rat CD45RC monoclonal antibody (clone OX22, 2 mg/kg, every 3.5 days) from week 2 of age up to week 12.
(§2) Prednisolone was administered by intraperitoneal injections (0.5 mg/kg, 5 days a week) from week 2 of age up to week 12.

[2] = test system: Dmd^mdx rats; experiment: Grip test of forelimb muscle strength in Dmd^mdx rats; conditions: ip from week 2 of age, tested at 12 weeks
Experimental: as §1, §2
At week 12 of age treated rats were analyzed for muscle strength using a grip test.
Rats were placed with their forepaws on a grid and were gently pulled backward until they released their grip. A grip meter (Bio-GT3, BIOSEB, France), attached to a force transducer, measured the peak force generated.
To examine whether muscle function was improved by the anti-CD45RC monoclonal antibody treatment, muscle strength was analyzed by a grip test of forelimbs in WT and Dmd^mdx rats at 12 weeks of age after initiation of treatment at 2 weeks of age.

[3] = test system: T CD8^+ CD45RC^high cells; experiment: Flow cytometry of T cell subsets in muscle and spleen of WT and Dmd^mdx rats after treatment
Experimental: Muscles of both hind limbs from WT or Dmd^mdx rats were excised and weighed. Muscles were minced and placed in gentle MACS C tubes with collagenase D in the presence of FCS 2%, 1 mM EDTA. Two runs of 30 minutes each in a gentle MACS dissociator were performed with new collagenase added between each run. Cells were suspended in 30 mL of PBS FCS 2%, 1 mM EDTA, were then applied to 15 mL of Hystopaque and centrifuged at 1000 g for 30 minutes without a break. Mononuclear cells were collected from the Hystopaque and PBS interface, washed and suspended in PBS FCS 2%, 1 mM EDTA.
Spleen was harvested, perfused with PBS and digested by collagenase D for 15 minutes at 37° C. Cells were suspended in PBS FCS 2%, 1 mM EDTA and mononuclear cells were recovered as explained above.
Mononuclear cells were stained with antibodies against the following antigens: CD45 (clone OX-1), T-cell receptor (TCR; clone R7/3), CD45RC (clone OX22), CD8 (clone OX8) and CD4 (W3/25), as well as with viability dyes eFluor506 or eFluor450, all from eBiosciences. Analysis was performed on a BD FACS Verse with FACSuite Software version 1.0.6. Post-acquisition analysis was performed with FlowJo software.
as §1, §2

animal growth (weight) [1]: severe reduction
Compound: C[C@]12C=CC(=O)C=C1CC[C@@H]1[C@@H]2[C@@H](O)C[C@@]2(C)[C@H]1CC[C@]2(O)C(=O)CO [prednisolone]
muscle strength (grip test) in treated Dmd^mdx rats compared with WT littermate controls [2]: levels identical to those of WT | muscle strength (grip test) in treated vs. untreated Dmd^mdx rats [2]: increased | T CD8^+ CD45RC^high cells ([3]; ip from week 2 of age, analyzed at 12 weeks, muscle of Dmd^mdx rats and spleen of WT and Dmd^mdx rats): specific decrease | CD4^+CD45RC^high cells ([3]; muscle and spleen of Dmd^mdx rats and spleen of WT rats, data not shown): numerically reduced | CD8^+CD45RC^int/neg cells ([3]; muscle and spleen of Dmd^mdx rats and spleen of WT rats, week 12): maintained
